*1 amine or outer side, *2 acyl side, *3 side chain or, on linkers, in order; H or OH if unused. Where a SMILES comes first, the peptide text is derived from it. Bridges are numbered along the chain shown (N, C = ends). [ ]: non-standard residue; d: D form. The star is where a group is joined. Ethylenediamine = C(CN[*:2])N[*:1]; X1 = O=C(CC1(S[*:2])CCCCC1)[*:1]; NH(CH2)4NH2 = NCCCCN*; NHCH2CH2OH = OCCN*
Legend:
[1] = tested on: vasopressor response to arginine vasopressin; test: Antagonism to the vasopressor response (Anti-VP); format: in vivo; conditions: estimated in vivo pA2
Description: Antagonism to the vasopressor response was estimated in accordance with Dyckes et al., J. Med. Chem., vol. 17 (1974) at 969. The values are expressed as pA2 values, defined as in Schild et al., Br. J. Pharmacol., vol. 2 (1947) at 189.
(§1) Antagonistic potencies were determined and expressed as "effective doses" and pA2 values. The "effective dose" is defined as the dose (in nanomoles per kilogram) that reduces the response seen from 2x units of agonist injected 20 min after the dose of antagonist to the response with 1x units of agonist. Estimated in vivo "pA2 " values represent the negative logarithms of the effective doses, divided by the estimated volume of distribution (67 ml/kg).

[2] = tested on: antidiuretic response to arginine vasopressin; test: Antagonism of the antidiuretic response to arginine vasopressin (Anti-ADH); format: in vivo, rats; conditions: estimated in vivo pA2
Description: Activity as antidiuretic agonists was determined by intravenous injection of the compounds being evaluated in ethanol-anesthesized water-loaded rats in accordance with Sawyer, Endocrinology, vol. 63 (1958) at 694. Antagonism of the antidiuretic response to subsequent injections of arginine vasopressin was tested by the method of Sawyer et al., Science, vol. 212 (1981) at 49.
as §1

## CC[C@H](C)[C@@H]1NC(=O)[C@H](Cc2ccccc2)NC(=O)[C@@H](Cc2ccccc2)NC(=O)CC2(CCCCC2)SSC[C@@H](C(=O)N2CCC[C@H]2C(=O)N[C@@H](CCCNC(=N)N)C(=O)N[C@@H](CO)C(N)=O)NC(=O)[C@H](CC(N)=O)NC1=O [Ser(NH2), [1-(beta-mercapto-beta,beta-cyclopentamethylenepropionic acid), 2-D-phenylalanine, 4-isoleucine, 9-serinamide]-arginine vasopressin] ([dF]FINCPRS-NH2; linker N-5 via X1)
[1]; Table 2
  Anti-VP Potency pA2: 8.10 ± 0.08
[2]; Table 2
  Anti-ADH Potency pA2: 8.10 ± 0.07

## CC[C@H](C)[C@@H]1NC(=O)[C@H](Cc2ccccc2)NC(=O)[C@@H](Cc2ccccc2)NC(=O)CC2(CCCCC2)SSC[C@@H](C(=O)N2CCC[C@H]2C(=O)N[C@@H](CCCNC(=N)N)C(=O)N[C@H](C(N)=O)[C@@H](C)O)NC(=O)[C@H](CC(N)=O)NC1=O [Thr(NH2), [1-(beta-mercapto-beta,beta-cyclopentamethylenepropionic acid), 2-D-phenylalanine, 4-isoleucine, 9-threoinamide]-arginine vasopressin] ([dF]FINCPRT-NH2; linker N-5 via X1)
[1]; Table 2
  Anti-VP Potency pA2: 7.64 ± 0.11
[2]; Table 2
  Anti-ADH Potency pA2: 7.39 ± 0.04

## CC[C@H](C)[C@@H]1NC(=O)[C@H](Cc2ccccc2)NC(=O)[C@@H](Cc2ccccc2)NC(=O)CC2(CCCCC2)SSC[C@@H](C(=O)N2CCC[C@H]2C(=O)N[C@@H](CCCNC(=N)N)C(=O)N[C@@H](Cc2ccc(O)cc2)C(N)=O)NC(=O)[C@H](CC(N)=O)NC1=O [Tyr(NH2), [1-(beta-mercapto-beta,beta-cyclopentamethylenepropionic acid), 2-D-phenylalanine, 4-isoleucine, 9-tyrosinamide]-arginine vasopressin] ([dF]FINCPRY-NH2; linker N-5 via X1)
[1]; Table 2
  Anti-VP Potency pA2: 7.27 ± 0.05
[2]; Table 2
  Anti-ADH Potency pA2: 7.85 ± 0.06

## CC[C@H](C)[C@@H]1NC(=O)[C@H](Cc2ccccc2)NC(=O)[C@@H](Cc2ccccc2)NC(=O)CC2(CCCCC2)SSC[C@@H](C(=O)N2CCC[C@H]2C(=O)N[C@@H](CCCNC(=N)N)C(=O)N[C@H](C(N)=O)C(C)C)NC(=O)[C@H](CC(N)=O)NC1=O [Val(NH2), [1-(beta-mercapto-beta,beta-cyclopentamethylenepropionic acid), 2-D-phenylalanine, 4-isoleucine, 9-valinamide]-arginine vasopressin] ([dF]FINCPRV-NH2; linker N-5 via X1)
[1]; Table 2
  Anti-VP Potency pA2: 7.66 ± 0.10
[2]; Table 2
  Anti-ADH Potency pA2: 8.11 ± 0.11

## COc1ccc(C[C@@H]2NC(=O)CC3(CCCCC3)SSC[C@@H](C(=O)N3CCC[C@H]3C(=O)N[C@@H](CCCNC(=N)N)C(=O)NCCN)NC(=O)[C@H](CC(N)=O)NC(=O)[C@H](CCC(N)=O)NC(=O)[C@H](Cc3ccccc3)NC2=O)cc1 [[1(beta-mercapto-beta,beta-cyclopentamethylenepropionic acid), 2-(O-methyl)tyrosine, 8-arginine-N-(beta-amino)ethylamide, 9-desglycinamide] vasopressin] (Y(Me)FQNCPR-Ethylenediamine; linker N-5 via X1)
[1]; Table 4, ^+ = mixed
  Anti-VP Potency pA2: 8.75 ± 0.06
[2]; Table 4
  Anti-ADH Potency pA2: ~ 6.3

## CNC(=O)[C@H](CCCNC(=N)N)NC(=O)[C@@H]1CCCN1C(=O)[C@@H]1CSSC2(CCCCC2)CC(=O)N[C@@H](Cc2ccc(OC)cc2)C(=O)N[C@@H](Cc2ccccc2)C(=O)N[C@@H](CCC(N)=O)C(=O)N[C@@H](CC(N)=O)C(=O)N1 [[1-(beta-mercapto-beta,beta-cyclopentamethylenepropionic acid), 2-(O-methyl)tyrosine, 8-arginine-N-methylamide, 9-desglycinamide] vasopressin] (Y(Me)FQNCPR-NHMe; linker N-5 via X1)
[1]; Table 4, ^+ = mixed
  Anti-VP Potency pA2: 8.73 ± 0.02
[2]; Table 4
  Anti-ADH Potency pA2: ~ 5.9

## CCOc1ccc(C[C@H]2NC(=O)CC3(CCCCC3)SSC[C@@H](C(=O)N3CCC[C@H]3C(=O)N[C@@H](CCCNC(=N)N)C(=O)NCCN)NC(=O)[C@H](CC(N)=O)NC(=O)[C@H]([C@@H](C)CC)NC(=O)[C@H](Cc3ccccc3)NC2=O)cc1 [[1-(beta-mercapto-beta,beta-cyclopentamethylenepropionic acid), 2-D-(O-ethyl)tyrosine, 4-isoleucine, 8-arginine-N-(beta-amino)ethylamide, 9-desglycinamide] vasopressin] ([dY](Et)FINCPR-Ethylenediamine; linker N-5 via X1)
[1]; Table 4, ^+ = mixed
  Anti-VP Potency pA2: 8.33 ± 0.06
[2]; Table 4
  Anti-ADH Potency pA2: 8.00 ± 0.12

## CCOc1ccc(C[C@H]2NC(=O)CC3(CCCCC3)SSC[C@@H](C(=O)N3CCC[C@H]3C(=O)N[C@@H](CCCNC(=N)N)C(=O)NCCO)NC(=O)[C@H](CC(N)=O)NC(=O)[C@H]([C@@H](C)CC)NC(=O)[C@H](Cc3ccccc3)NC2=O)cc1 [[1-(beta-mercapto-beta,beta-cyclopentamethylenepropionic acid), 2-D-(O-ethyl)tyrosine, 4-isoleucine, 8-arginine-N-(beta-hydroxy)ethylamide, 9-desglycinamide] vasopressin] ([dY](Et)FINCPR-NHCH2CH2OH; linker N-5 via X1)
[1]; Table 4, ^+ = mixed
  Anti-VP Potency pA2: 7.89 ± 0.09
[2]; Table 4
  Anti-ADH Potency pA2: 7.82 ± 0.06

## CCOc1ccc(C[C@H]2NC(=O)CC3(CCCCC3)SSC[C@@H](C(=O)N3CCC[C@H]3C(=O)N[C@@H](CCCNC(=N)N)C(=O)NCCCCN)NC(=O)[C@H](CC(N)=O)NC(=O)[C@H]([C@@H](C)CC)NC(=O)[C@H](Cc3ccccc3)NC2=O)cc1 [[1-(beta-mercapto-beta,beta-cyclopentamethylenepropionic acid), 2-D-(O-ethyl)tyrosine, 4-isoleucine, 8-arginine-N-(delta-amino)butylamide,9-desglycinamide] vasopressin] ([dY](Et)FINCPR-{NH(CH2)4NH2}; linker N-5 via X1)
[1]; Table 4, ^+ = mixed
  Anti-VP Potency pA2: 7.78 ± 0.4
[2]; Table 4
  Anti-ADH Potency pA2: 7.68 ± 0.05

## CCOc1ccc(C[C@H]2NC(=O)CC3(CCCCC3)SSC[C@@H](C(=O)N3CCC[C@H]3C(=O)N[C@@H](CCCNC(=N)N)C(=O)NCC(=O)NCCN)NC(=O)[C@H](CC(N)=O)NC(=O)[C@H]([C@@H](C)CC)NC(=O)[C@H](Cc3ccccc3)NC2=O)cc1 [[1-(beta-mercapto-beta,beta-cyclopentamethylenepropionic acid), 2-D-(O-ethyl)tyrosine, 4-isoleucine, 9-glycine-N-(beta-amino)ethylamide]-arginine vasopressin] ([dY](Et)FINCPRG-Ethylenediamine; linker N-5 via X1)
[1]; Table 4, ^+ = mixed
  Anti-VP Potency pA2: 8.07 ± 0.03
[2]; Table 4
  Anti-ADH Potency pA2: 7.86 ± 0.04

## CCOc1ccc(C[C@H]2NC(=O)CC3(CCCCC3)SSC[C@@H](C(=O)N3CCC[C@H]3C(=O)N[C@@H](CCCNC(=N)N)C(=O)N[C@@H](C)C(=O)NC)NC(=O)[C@H](CC(N)=O)NC(=O)[C@H](C(C)C)NC(=O)[C@H](Cc3ccccc3)NC2=O)cc1 [[1-(beta-mercapto-beta,beta-cyclopentamethylenepropionic acid), 2-D-(O-ethyl)tyrosine, 4-valine, 9-alanine-N-methylamide]-arginine vasopressin] ([dY](Et)FVNCPRA-NHMe; linker N-5 via X1)
[1]; Table 4, ^+ = mixed
  Anti-VP Potency pA2: 8.17 ± 0.04
[2]; Table 4
  Anti-ADH Potency pA2: 7.92 ± 0.06

## CCOc1ccc(C[C@H]2NC(=O)CC3(CCCCC3)SSC[C@@H](C(=O)N3CCC[C@H]3C(=O)N[C@@H](CCCNC(=N)N)C(=O)NCC(=O)NC)NC(=O)[C@H](CC(N)=O)NC(=O)[C@H](C(C)C)NC(=O)[C@H](Cc3ccccc3)NC2=O)cc1 [[1-(beta-mercapto-beta,beta-cyclopentamethylenepropionic acid), 2-D-(O-ethyl)tyrosine, 4-valine, 9-glycine-N-methylamide]-arginine vasopressin] ([dY](Et)FVNCPRG-NHMe; linker N-5 via X1)
[1]; Table 4, ^+ = mixed
  Anti-VP Potency pA2: 7.71 ± 0.04
[2]; Table 4
  Anti-ADH Potency pA2: 7.58 ± 0.06

## CCNC(=O)CNC(=O)[C@H](CCCNC(=N)N)NC(=O)[C@@H]1CCCN1C(=O)[C@@H]1CSSC2(CCCCC2)CC(=O)N[C@H]([C@H](C)CC)C(=O)N[C@@H](Cc2ccccc2)C(=O)N[C@@H]([C@@H](C)CC)C(=O)N[C@@H](CC(N)=O)C(=O)N1 [[1-(beta-mercapto-beta,beta-cyclopentamethylenepropionic acid), 2-D-isoleucine, 4-isoleucine, 9-glycine-N-ethylamide]-arginine vasopressin] ([dI]FINCPRG-NHEt; linker N-5 via X1)
[1]; Table 4, ^+ = mixed
  Anti-VP Potency pA2: 6.54 ± 0.11
[2]; Table 4
  Anti-ADH Potency pA2: 7.86 ± 0.05

## CC[C@H](C)[C@@H]1NC(=O)[C@H](Cc2ccccc2)NC(=O)[C@@H](Cc2ccccc2)NC(=O)CC2(CCCCC2)SSC[C@@H](C(=O)N2CCC[C@H]2C(=O)N[C@@H](CCCNC(=N)N)C(=O)NCCN)NC(=O)[C@H](CC(N)=O)NC1=O [[1-(beta-mercapto-beta,beta-cyclopentamethylenepropionic acid), 2-D-phenylalanine, 4-isoleucine, 8-arginine-N-(beta-amino)ethylamide, 9-desglycinamide] vasopressin] ([dF]FINCPR-Ethylenediamine; linker N-5 via X1)
[1]; Table 4, ^+ = mixed
  Anti-VP Potency pA2: 7.89 ± 0.04
[2]; Table 4
  Anti-ADH Potency pA2: 8.11 ± 0.06
